The results in this text go back to patent US9315463B2, “Cyclohexylamine derivatives having β2 adrenergic agonist and M3 muscarinic antagonist activities” (Almirall, S.A., priority 2010, dated 2016).

Test [1] addresses human adrenergic beta2 receptor (Homo sapiens (Human), UniProt P07550). In words: Human adrenergic β2 receptor binding assay (3H-CGP12177, Sf9 membranes). As for the experimental part: Test 1: Human Adrenergic β1 and β2 Receptor Binding Assays
The study of binding to human adrenergic beta1 and beta2 receptors was performed using commercial membranes prepared from Sf9 cells where they are overexpressed (Perkin Elmer). The membrane suspensions (16 μg/well for beta1 and 5 μg/well for beta2) in assay buffer (75 mM Tris/HCl with 12.5 mM MgCl2 and 2 mM EDTA pH=7.4) were incubated with 0.14 or 0.6 nM of 3H-CGP12177 (Amersham) for beta 1 and beta 2 receptors respectively in a final volume of 250 μl, in GFC Multiscreen 96 well plates (Millipore) previously treated with assay buffer containing 0.3% PEI (Sigma). Non specific binding was measured in the presence of 1 μM propanolol. Incubation was maintained for 60 minutes at room temperature and with gentle shaking. The binding reactions were terminated by filtration and washing with 2.5 volumes of Tris/HCl 50 mM pH=7.4. The affinity of each test compound to the receptor was determined by using ten different concentrations ran in duplicate. IC50s were calculated using Activity Base software from IDBS and the four parameters-log equation.

Test [2] has as its target human muscarinic M3 receptor (Homo sapiens (Human), UniProt P20309). In words: Human muscarinic M3 receptor binding assay ([3H]-NMS, CHO-K1 membranes). As for the experimental part: Test 2: Human Muscarinic M1, M2, M3, M4 and M5Receptors Binding Assays
The study of binding to human muscarinic M1, M2, M3, M4 and M5 receptors was performed using commercial membranes (Perkin Elmer) prepared from CHO-K1 cells. Radioligand binding experiments were conducted in 96 polypropylene well plates in a total volume of 200 μl. All reagents were dissolved in assay binding buffer (PBS with calcium and magnesium, SIGMA), except compounds that were dissolved in DMSO 100%. Non-specific binding (NSB) was measured in the presence of 1 μM atropine. [3H]-NMS was used as the radioligand at a concentration of 1 nM for M2, M3 and M5 and 0.3 nM for M1 and M4. [3H]-NMS and antagonists were incubated with membranes that express human muscarinic receptors M1, M2, M3, M4 and M5 at concentrations of 8.1, 10, 4.9, 4.5 and 4.9 μg/well, respectively.
After an incubation period of two hours with gentle shaking, 150 μl of the reaction mix were transferred to 96 GF/C filter plates (Millipore), previously treated with wash buffer (Tris 50 mM; NaCl 100 mM; pH: 7.4), containing 0.05% PEI (Sigma) during one hour. Bound and free [3H]-NMS were separated by rapid vacuum filtration in a manifold from Millipore and washed four times with ice cold wash buffer. After drying 30 min, 30 μl of OPTIPHASE Supermix were added to each well and radioactivity quantified using a Microbeta microplate scintillation counter.
The affinity of each test compound to the receptors was determined by using ten different concentrations ran in duplicate. IC50s were calculated using Activity Base software from IDBS and the four parameters-log equation.

Where [3] appears, read: 3H-CGP12177 displacement, read-out: Binding IC50, nM β2.
Where [4] appears, read: [3H]-NMS displacement, read-out: Binding IC50, nM M3.

Where two headings read alike, the source gives them in different places.

Chain of human muscarinic M3 receptor (P20309 whole entry): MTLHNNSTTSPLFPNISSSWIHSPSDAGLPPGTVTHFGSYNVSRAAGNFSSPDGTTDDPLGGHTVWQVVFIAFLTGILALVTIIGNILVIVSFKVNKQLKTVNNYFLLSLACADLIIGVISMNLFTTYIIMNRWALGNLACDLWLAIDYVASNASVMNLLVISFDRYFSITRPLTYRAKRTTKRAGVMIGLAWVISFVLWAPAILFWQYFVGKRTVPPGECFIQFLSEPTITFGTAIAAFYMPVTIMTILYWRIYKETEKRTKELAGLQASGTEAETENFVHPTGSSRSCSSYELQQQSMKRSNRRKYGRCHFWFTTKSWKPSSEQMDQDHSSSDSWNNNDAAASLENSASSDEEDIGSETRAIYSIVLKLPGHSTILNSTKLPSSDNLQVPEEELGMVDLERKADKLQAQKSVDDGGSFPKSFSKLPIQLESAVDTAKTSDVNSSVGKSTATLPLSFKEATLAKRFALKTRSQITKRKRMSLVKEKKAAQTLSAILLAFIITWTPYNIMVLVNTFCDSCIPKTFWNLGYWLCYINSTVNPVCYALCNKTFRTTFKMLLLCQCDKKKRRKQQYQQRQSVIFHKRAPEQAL
Chain of human adrenergic beta2 receptor (P07550 whole entry): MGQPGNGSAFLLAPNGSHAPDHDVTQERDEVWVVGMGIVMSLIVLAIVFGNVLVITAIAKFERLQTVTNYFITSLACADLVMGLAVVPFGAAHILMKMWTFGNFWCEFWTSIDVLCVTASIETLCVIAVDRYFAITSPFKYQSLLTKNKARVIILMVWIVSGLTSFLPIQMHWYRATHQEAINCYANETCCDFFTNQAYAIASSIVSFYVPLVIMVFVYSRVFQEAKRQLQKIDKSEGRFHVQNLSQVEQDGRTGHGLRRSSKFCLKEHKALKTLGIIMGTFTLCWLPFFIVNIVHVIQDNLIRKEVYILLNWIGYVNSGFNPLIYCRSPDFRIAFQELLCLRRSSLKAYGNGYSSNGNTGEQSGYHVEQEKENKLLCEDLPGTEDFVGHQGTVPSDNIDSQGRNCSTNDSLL

In the case of `CN(CCCCCCCCCNC[C@H](O)c1ccc(O)c2[nH]c(=O)ccc12)C1CCC(OC(=O)C(O)(c2cccs2)c2cccs2)CC1` (stereo partly drawn) [Example 1, trans-4-[(9-{[(2R)-2-hydroxy-2-(8-hydroxy-2-oxo-1,2-dihydroquinolin-5-yl)ethyl]-amino}nonyl)(methyl)amino]cyclohexyl hydroxy(di-2-thienyl)acetate formiate (2:1)], the 50% inhibitory concentration (IC50) is 6.4 nM in test [1] (read-out: Binding IC50, nM β2, 3H-CGP12177 displacement) and 0.2 nM in test [2] (read-out: Binding IC50, nM M3, [3H]-NMS displacement).
With `COc1cc(NC(=O)OCCN(C)[C@H]2CC[C@H](OC(=O)C(O)(c3cccs3)c3cccs3)CC2)c(Cl)cc1CNC[C@H](O)c1ccc(O)c2[nH]c(=O)ccc12` [Example 12, trans-4-[{2-[({[2-chloro-4-({[(2R)-2-hydroxy-2-(8-hydroxy-2-oxo-1,2-dihydroquinolin-5-yl)ethyl]amino}methyl)-5-methoxyphenyl]amino}carbonyl)oxy]ethyl}-(methyl)amino]cyclohexyl hydroxy(di-2-thienyl)acetate hydrofluoride], the 50% inhibitory concentration (IC50) in test [1] (setting [3]) and in test [2] (setting [4]) was 1.6 nM in each case.
Regarding `COc1cc(NC(=O)CCN(C)[C@H]2CC[C@](C)(OC(=O)C(O)(c3cccs3)c3cccs3)CC2)c(Cl)cc1CNC[C@H](O)c1ccc(O)c2[nH]c(=O)ccc12` [Example 13, trans-4-[(3-{[2-chloro-4-({[(2R)-2-hydroxy-2-(8-hydroxy-2-oxo-1,2-dihydroquinolin-5-yl)ethyl]amino}methyl)-5-methoxyphenyl]amino}-3-oxopropyl)(methyl)amino]-1-methylcyclohexyl hydroxy(di-2-thienyl)acetate], the IC50 in test [1] (setting [3]) was found to be 2.2 nM; in test [2] (setting [4]) it was 2.1 nM.
With `COc1cc(NC(=O)CCN(C)[C@H]2CC[C@H](OC(=O)C(O)(c3cccs3)c3cccs3)CC2)c(F)cc1CNC[C@H](O)c1ccc(O)c2[nH]c(=O)ccc12` [Example 16, trans-4-[(3-{[2-fluoro-4-({[(2R)-2-hydroxy-2-(8-hydroxy-2-oxo-1,2-dihydroquinolin-5-yl)ethyl]amino}methyl)-5-methoxyphenyl]amino}-3-oxopropyl)(methyl)amino]-cyclohexyl hydroxy(di-2-thienyl)acetate], the figures for the IC50 in test [1] (setting [3]) and in test [2] (setting [4]) were 4.8 nM and 2 nM, respectively.
With `CN(CCC(=O)Nc1cc(F)c(CNC[C@H](O)c2ccc(O)c3[nH]c(=O)ccc23)cc1F)[C@H]1CC[C@H](OC(=O)C(O)(c2cccs2)c2cccs2)CC1` [Example 18, trans-4-[(3-{[2,5-difluoro-4-({[(2R)-2-hydroxy-2-(8-hydroxy-2-oxo-1,2-dihydroquinolin-5-yl)ethyl]amino}methyl)phenyl]amino}-3-oxopropyl)-(methyl)amino]cyclohexyl hydroxy(di-2-thienyl)acetate hydrofluoride (1:2)], the IC50 worked out at 13 nM in test [1] (setting [3]) and 1.6 nM in test [2] (setting [4]).
Consider `COc1cc(NC(=O)CCN(C)[C@H]2CC[C@H](OC(=O)C(O)(c3cccs3)c3cccs3)CC2)c(Cl)cc1CCNC[C@H](O)c1ccc(O)c2[nH]c(=O)ccc12` [Example 20, trans-4-[(3-{[2-chloro-4-(2-{[(2R)-2-hydroxy-2-(8-hydroxy-2-oxo-1,2-dihydroquinolin-5-yl)ethyl]amino}ethyl)-5-methoxyphenyl]amino}-3-oxopropyl)-(methyl)amino]cyclohexyl hydroxy(di-2-thienyl)acetate hydrofluoride (1:2)], for which the IC50 is 5.3 nM in test [1] (setting [3]) and 0.7 nM in test [2] (setting [4]).
Take `COc1cc(NC(=O)OCCN(C)[C@H]2CC[C@H](OC(=O)C(O)(c3cccs3)c3cccs3)CC2)c(C#N)cc1CNC[C@H](O)c1ccc(O)c2[nH]c(=O)ccc12` [Example 22, trans-4-[{2-[({[2-cyano-4-({[(2R)-2-hydroxy-2-(8-hydroxy-2-oxo-1,2-dihydroquinolin-5-yl)ethyl]amino}methyl)-5-methoxyphenyl]amino}carbonyl)-oxy]ethyl}(methyl)amino]cyclohexyl hydroxy(di-2-thienyl)acetate hydrofluoride (1:2)]: the figures for the IC50 in test [1] (setting [3]) and in test [2] (setting [4]) were 4.5 nM and 1.4 nM, respectively.
For `COc1cc(OCCCCN(C)[C@H]2CC[C@H](OC(=O)C(O)(c3cccs3)c3cccs3)CC2)c(Cl)cc1CNC[C@H](O)c1ccc(O)c2[nH]c(=O)ccc12` [Example 25, trans-4-[{4-[2-chloro-4-({[(2R)-2-hydroxy-2-(8-hydroxy-2-oxo-1,2-dihydroquinolin-5-yl)ethyl]amino}methyl)-5-methoxyphenoxy]butyl}(methyl)amino]cyclohexyl hydroxy(di-2-thienyl)acetate hydrofluoride (1:2)], the IC50 in test [1] (setting [3]) was 9.6 nM; in test [2] (setting [4]) it was 0.3 nM.
In the case of `COc1cc(NC(=O)OCCN(C)[C@H]2CC[C@H](OC(=O)C(O)(c3cccs3)c3cccs3)CC2)c(Cl)cc1CNC[C@H](O)c1ccc(O)c2c1OCC(=O)N2` [Example 26, trans-4-[{2-[({[2-chloro-4-({[(2R)-2-hydroxy-2-(5-hydroxy-3-oxo-3,4-dihydro-2H-1,4-benzoxazin-8-yl)ethyl]amino}methyl)-5-methoxyphenyl]amino}carbonyl)-oxy]ethyl}(methyl)amino]cyclohexyl hydroxy(di-2-thienyl)acetate], the figures for the IC50 in test [1] (setting [3]) and in test [2] (setting [4]) were 0.38 nM and 1.7 nM, respectively.
`COc1cc(NC(=O)OCCN(C)[C@H]2CC[C@H](OC(=O)[C@](O)(c3ccccc3)C3CCCC3)CC2)c(Cl)cc1CNC[C@H](O)c1ccc(O)c2[nH]c(=O)ccc12` [Example 28, trans-4-[{2-[({[2-chloro-4-({[(2R)-2-hydroxy-2-(8-hydroxy-2-oxo-1,2-dihydroquinolin-5-yl)ethyl]amino}methyl)-5-methoxyphenyl]amino}carbonyl)oxy]ethyl}-(methyl)amino]cyclohexyl (2R)-cyclopentyl (hydroxy)phenylacetate]: the IC50 in test [1] (setting [3]) worked out at 1.3 nM; in test [2] (setting [4]), 8.5 nM.
With `COc1cc(NC(=O)OCCN(C)[C@H]2CC[C@H](OC(=O)[C@](O)(c3cccs3)C3CCCC3)CC2)c(Cl)cc1CNC[C@H](O)c1ccc(O)c2[nH]c(=O)ccc12` [Example 29, trans-4-[{2-[({[2-chloro-4-({[(2R)-2-hydroxy-2-(8-hydroxy-2-oxo-1,2-dihydroquinolin-5-yl)ethyl]amino}methyl)-5-methoxyphenyl]amino}carbonyl)-oxy]ethyl}(methyl)amino]cyclohexyl (2S)-cyclopentyl(hydroxy)-2-thienylacetate], the IC50 in test [1] (setting [3]) amounted to 1.1 nM; in test [2] (setting [4]), 3.8 nM.
